Experimental data reported in PMC8469962, “Unusual Bicyclo[3.2.1]Octanoid Neolignans from Leaves of Piper crocatum and Their Effect on Pyruvate Dehydrogenase Activity” (Plants, 2021).
“Also recorded” adds a separate entry of the source.

System: PDHE1α S300 phosphorylation
Assay: Pyruvate dehydrogenase complex (PDH) cellular activity: immunofluorescence of p-PDH E1α (Ser300) in AD-293 cells
Assay type: cell-based, Human
Settings: for IC50: Homo sapiens, AD293, 24 h incubation, normalized to 5 mM DCA control, read-out: IC50, inhibition of PDHE1α S300 phosphorylation; for inhibition of phosphorylation of E1α S300 in fluorescent images, compared with DCA: compounds at 60 µM, DCA at 5 mM
Description: Point two percent gelatin was added to a black 96-well plate with a clear bottom and incubated for 1 h. Afterwards, the plate was washed with growth media. Human AD-293 cells, derived from the HEK293 cells, were seeded into black 96-well plates with a clear bottom and grown for 24 h. Compounds were then added and incubated for 24 h. The cells were then fixed with 2% paraformaldehyde, and permeabilized anti-PDHE1 pSer300 (Merk Millipore, Burlington, MA, AP1064) was added and incubated overnight. Next, the cells were washed and Alexa fluor 488, goat anti-rabbit ab (Invitrogen, Waltham, MA, A11008) was added with Hoechst 33,258 (Invitrogen, H3569) and incubated for 2 h. Finally, cells were washed, and the plates were measured in Operetta (PerkinElmer, Waltham, MA). The raw data were normalized for the pharmacological inhibitor control (5 mM dichloroacetate (DCA)) and percentage effect values using the software package Harmony High-Content Imaging and Analysis Software 3.1. Dose response curves were generated by plotting the percentage effect values and IC50 values were calculated via GraphPad Prism 6.

## C=CCC12C=C(OC)C(=O)C(OC)(C(c3cc(OC)c(OC4OC(CO)C(O)C(O)C4O)c(OC)c3)C1C)C2O [Compound 2, (1′R,2′R,3′S,7S,8R)-∆^5′^,8′-2′-hydroxy-3,5,3′,5′-tetramethoxyl-4′-oxo-8.1′7.3′-neolignan-4-O-β-D-glucopyranoside]
  IC50: 99.8 µM
  inhibition of phosphorylation of E1α S300 in fluorescent images, compared with DCA: better effect than that of dichloroacetate (DCA); also recorded: better inhibitory effect of compound 2 than that of compound 3 and DCA

## C=CCC1=CC2(OC)C(C)C(c3cc(OC)c(OC4OC(CO)C(O)C(O)C4O)c(OC)c3)C(OC)(C1=O)C2O [Compound 3, (1′R,2′S,3′R,7S,8R)-∆^5′^8′-2′-hydroxy-3,5,1′,3′-tetramethoxyl-4′-oxo-8.1′7.3′-neolignan-4-O-β-D-glucopyranoside]
  IC50: 80.2 µM
  inhibition of phosphorylation of E1α S300 in fluorescent images, compared with DCA: better effect than that of dichloroacetate (DCA)
